From patent US4016254A, “Pharmaceutical formulations” (Beecham Group Limited, priority 1972, dated 1977)

Key:
Type in all cases: physicochemical
[1] = Flow properties: angle of repose
[2] = Bulk densities, Examples 1-14
[3] = Potency, Examples 15-56 (determined in conventional manner)
Method: The moisture contents of these powders were determined by the Karl Fischer method. The potency of the product was determined in conventional manner.

Angle of repose of raw material [1]: 64 °
Bulk Density [2]: 0.67
Potency of ampicillin trihydrate raw materials ([3]; raw material of Examples 15-29 and 41-48): 83%
Potency of ampicillin trihydrate raw materials ([3]; raw material of Examples 30-40): 84%
Potency of ampicillin trihydrate raw materials ([3]; raw material of Examples 49-56): 86%
Structure (SMILES): CC1(C)S[C@@H]2[C@H](NC(=O)[C@H](N)c3ccccc3)C(=O)N2[C@H]1C(=O)O [ampicillin trihydrate raw material, ampicillin trihydrate]
